Data taken from BindingDB's records for doi:10.1021/jm00168a011 (Merrell Dow Research Institute, 1990).
Structures can show the parent of a compound that is named as a salt.

The molecules below were run against T1, 5-hydroxytryptamine receptor 3A/3B (Mus musculus, UniProt P23979+Q9JHJ5) (assay: Binding affinity towards 5-hydroxytryptamine 3 receptor was determined by using [3H]-ICS 205-930 as radioligand in mouse N1E 115 cells).
T1 sequence (P23979 whole entry): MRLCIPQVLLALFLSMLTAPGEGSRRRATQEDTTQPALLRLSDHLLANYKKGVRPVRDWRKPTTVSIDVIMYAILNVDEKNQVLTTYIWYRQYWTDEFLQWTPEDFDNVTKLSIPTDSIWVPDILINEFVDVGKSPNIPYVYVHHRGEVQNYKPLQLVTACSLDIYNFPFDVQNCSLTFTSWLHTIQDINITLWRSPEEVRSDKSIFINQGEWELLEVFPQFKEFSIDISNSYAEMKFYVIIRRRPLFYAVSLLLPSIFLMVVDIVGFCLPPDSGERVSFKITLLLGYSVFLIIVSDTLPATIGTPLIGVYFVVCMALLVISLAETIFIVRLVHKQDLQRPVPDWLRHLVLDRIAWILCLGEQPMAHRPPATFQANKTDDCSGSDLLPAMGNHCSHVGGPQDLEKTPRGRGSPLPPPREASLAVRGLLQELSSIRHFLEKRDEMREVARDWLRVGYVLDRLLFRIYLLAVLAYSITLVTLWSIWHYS
T1 sequence (Q9JHJ5 whole entry): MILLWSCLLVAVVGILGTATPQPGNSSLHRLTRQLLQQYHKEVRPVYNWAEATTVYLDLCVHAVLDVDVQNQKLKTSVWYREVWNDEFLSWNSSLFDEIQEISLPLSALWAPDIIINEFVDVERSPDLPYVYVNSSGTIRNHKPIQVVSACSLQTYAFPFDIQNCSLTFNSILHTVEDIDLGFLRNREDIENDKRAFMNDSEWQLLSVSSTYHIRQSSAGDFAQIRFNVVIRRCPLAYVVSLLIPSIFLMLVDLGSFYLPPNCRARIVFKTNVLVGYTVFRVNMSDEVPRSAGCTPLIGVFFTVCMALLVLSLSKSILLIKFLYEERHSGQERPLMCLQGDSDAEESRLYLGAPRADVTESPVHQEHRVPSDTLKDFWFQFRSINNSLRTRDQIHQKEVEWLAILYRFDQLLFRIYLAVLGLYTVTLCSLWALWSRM
CN1[C@@H]2CC[C@H]1C[C@@H](OC(=O)c1c[nH]c3ccccc13)C2 [(3-ENDO)-8-METHYL-8-AZABICYCLO[3.2.1]OCT-3-YL 1H-INDOLE-3-CARBOXYLATE] gave a Kd of 0.813 nM. O=C(OC1CC2CCC(C1)N2)c1c[nH]c2ccccc12 (stereo unspecified) [NORTROPISETRON] showed a Kd of 0.724 nM. For CCN(CC)CCNC(=O)c1cc(Cl)c(N)cc1OC [4-amino-5-chloro-N-[2-(diethylamino)ethyl]-2-methoxy-benzamide;hydrochloride], the Kd was 224 nM. Molecule CN1[C@@H]2CC[C@H]1C[C@@H](OC(=O)c1cc(Cl)cc(Cl)c1)C2 [TROPANYL 3,5-DICHLOROBENZOATE] has a Kd of 6.2 nM. Cc1nccn1CC1CCc2c(c3ccccc3n2C)C1=O (stereo unspecified) [NSC_68647] was tested, and the Kd was 13 nM. c1ccc2nc(N3CCNCC3)ccc2c1 [2-Piperazin-1-yl-quinoline (Quipazine)] showed a Kd of 2 nM.
